{"source": "patent US20030092633A1", "about": "“Preventing desensitization of receptors” (priority 2001, published 2003)", "key": {"β-adrenergic receptor": {"test_system": "β-adrenergic receptor", "test": "Saturation binding with radiolabeled 125I-cyanopindolol in purified cardiac membrane of treated mice", "format": "in vivo", "method": "Mice were treated with 10 ng/kg/day of GSNO or PBS infused continuously for 1 week through an azlet miniosmotic pump placed subcutaneously. Another set of mice was treated for 7 days with isoproterenol (30 mg/kg/day), and the fourth and final group received for 7 days, isoproterenol (30 mg/kg/day) plus GSNO (10 ng/kg/day). The mice were sacrificed and heart tissue was removed. Saturation binding with radiolabeled 1^125-cyanopindolol was carried out in purified cardiac membrane according to the procedure of Iaccarino et al, Circulation 98, 17A3-17A9 (1998)."}, "[1]": {"test": "Ratio of heart weight to body weight after 1 week continuous infusion", "format": "in vivo", "settings": "mice, infused continuously 1 week; GSNO 10/ng/kg/day; isoproterenol 30 mg/kg/day; combination 10 mg/kg/day GSNO plus 30 mg/kg/day isoproterenol; FIG. 1", "method": "Mice were treated with 10/ng/kg/day of GSNO, or with PBS (control) or with isoproterenol (at a dosage of 30 mg/kg/day) or with 10 mg/kg/day of GSNO plus 30 mg/kg/day isoproterenol, infused continuously for 1 week. The animals were sacrificed and the hearts were weighed and a ratio of heart weight to body weight was determined for each case. The results are set forth in FIG. 1 where hw:bw, i.e., the legend on the vertical axis, is the ratio of heart weight to total body weight and “ISO” means isoproterenol. […] The increase in size of heart (hypertrophy) is an advantage especially in the case of a patient on a left ventricular heart assist device awaiting heart transplant and in the case of a patient who has had heart surgery and cannot be disconnected from a heart pump without loss of heart function. The asterisks in FIG. 1 mean […] compared to control."}, "GRK": {"test_system": "GRK", "test": "GRK phosphorylation of synthetic peptide substrate with 32P-ATP (isolated system)", "format": "biochemical", "settings": "GSNO 500 μM, 50 μM, 5 μm; counts per minute; FIG. 3", "method": "An isolated system was provided consisting of medium, GRK, standard synthetic peptide substrate and radiolabeled ^32P-adenosine triphosphate, i.e., ^32P-ATP, as a source of phosphate. Runs were carried out on the system without additives, and with 500 μM glutathione (GSH) present and with GSNO (500 μM) present or with GSNO (50 μM) present or with GSNO (5 μm) present. The amount of bound ^32P was measured in counts per minute (CPM)."}, "[2]": {"test": "Example I: patient with class 4 congestive heart failure", "format": "in vivo", "method": "A person with class 4 congestive heart failure enters the hospital with shortness of breath and bradyacardia. […] The patient is subsequently switched to IV dobutamine at 10 μg per kg per minute titrated to cardiac output. Over the following three days the drug is increased to 30 μg per kg per minute to maintain cardiac output. […] The patient undergoes bypass surgery and does well even though they have been viewed as at high risk."}, "[3]": {"test": "Example II: patient on left ventricular assist device awaiting cardiac transplantation", "format": "in vivo", "settings": "IV GSNO 4 nmol per kg per minute", "description": "A person awaiting cardiac transplantation is placed a left ventricular assist device, but continues to suffer from severe shortness of breath."}, "[4]": {"test": "Example III: patient who cannot be removed from bypass after coronary artery bypass grafting", "format": "in vivo", "settings": "intravenous GSNO 2 nmol per kg per minute, after two hours", "description": "A person with an ejection fraction of 17% undergoes coronary artery bypass grafting. The surgeons are unable to remove the patient from bypass."}, "[5]": {"test": "Example IV: metastatic prostate cancer patient with bone pain unresponsive to opiates", "format": "in vivo", "settings": "intravenous GSNO 10 nmol per kg per minute in conjunction with morphine", "description": "A person with metastatic prostate cancer is suffering from severe bone pain unresponsive to opiates."}, "[6]": {"test": "Example VI: cystic fibrosis patient with shortness of breath", "format": "in vivo", "settings": "inhaled GSNO, 3 cc of a 10 mM solution, pH 7, 4×/day", "method": "A person with cystic fibrosis enters the hospital complaining of shortness of breath. […] They are started on inhaled GSNO (3 cc of a 10 mM solution, pH 7, 4×/day)."}, "[7]": {"test": "Example V: heroine addict, dose tapering, withdrawal symptoms", "format": "in vivo, patient", "settings": "ethyl nitrite intravenously 2 nmol per kg per minute", "description": "A heroine addict enters a clinic where their dose is tapered gradually. In order to avoid symptoms of withdrawal, ethyl nitrite is started intravenously at 2 nmol per kg per minute and symptoms of withdrawal, including sweats and shaking, are ameliorated."}, "[8]": {"test": "Example VII: patient with rheumatoid arthritis and pulmonary infiltrates", "format": "in vivo", "settings": "intravenous ethyl nitrite 2 nmol per kg per minute", "description": "A person with rheumatoid arthritis and pulmonary infiltrates complains of shortness of breath and knee pain."}}, "data": [{"smiles": "N[C@@H](CCC(=O)N[C@@H](CSN=O)C(=O)NCC(=O)O)C(=O)O", "note": "[GSNO, S-nitrosoglutathione]", "values": [{"measurement": "amount of β-adrenergic receptor", "setting": "β-adrenergic receptor; GSNO 10 ng/kg/day infused 1 week, no isoproterenol", "value": 40, "unit": "fmol per mg/protein"}, {"measurement": "ratio of heart weight to body weight (hw:bw), size of heart muscle", "setting": "[1]", "value": "increases the size of the heart muscle"}, {"measurement": "amount of bound 32P (incorporation of 32P into substrate)", "setting": "GRK", "value": "concentration dependent reduction in incorporation of ^32P"}, {"measurement": "cardiac output", "setting": "[2]; IV GSNO 2 nmol per kg per minute, on dobutamine 30 μg per kg per minute, over the following 24 hours", "value": "improved"}, {"measurement": "cardiac output", "setting": "[3]", "value": "increase in cardiac output"}, {"measurement": "shortness of breath", "setting": "[3]", "value": "decrease in shortness of breath"}, {"measurement": "removal from bypass", "setting": "[4]", "value": "successfully removed from bypass"}, {"measurement": "bone pain", "setting": "[5]", "value": "relieves their pain"}, {"measurement": "FEV1 (acute)", "setting": "[6]", "value": "does not change acutely"}, {"measurement": "blood pressure", "setting": "[6]", "value": "remains stable"}, {"measurement": "symptoms of shortness of breath", "setting": "[6]; with corresponding improvement in FEV1", "value": "resolve over the following 48 hours"}]}, {"smiles": "N[C@@H](CSN=O)C(=O)O", "note": "[S-nitroso-cysteine]", "values": [{"measurement": "amount of bound 32P (incorporation of 32P into substrate)", "setting": "GRK", "value": "same result of GRK inhibition and interference with substrate phosphorylation"}]}, {"smiles": "CCON=O", "note": "[ethyl nitrite]", "values": [{"measurement": "symptoms of withdrawal, including sweats and shaking", "setting": "[7]", "value": "ameliorated"}, {"measurement": "knee pain", "setting": "[8]", "value": "decrease in knee pain"}, {"measurement": "respiratory status", "setting": "[8]", "value": "improvement in respiratory status"}]}, {"smiles": "CC(C)NCC(O)c1ccc(O)c(O)c1", "note": "(stereo not drawn) [isoproterenol, reference compound]", "values": [{"measurement": "amount of β-adrenergic receptor", "setting": "β-adrenergic receptor; isoproterenol 30 mg/kg/day for 7 days, no GSNO", "value": "20 fmol per milligram protein"}, {"measurement": "ratio of heart weight to body weight (hw:bw), size of heart muscle", "setting": "[1]", "value": "increased the size of the heart muscle"}, {"measurement": "symptoms (shortness of breath and bradyacardia)", "setting": "[2]; 10 μg per minute intravenous isoproterenol", "value": "resolution of symptoms"}]}]}
